The series is classed as in vivo. As to conditions: rats which consumed a bait comprising 15 ppm of difethialone of the prior art. The protocol: For comparative purposes, the difethialone content retained in the liver of rats which consumed a bait comprising 15 ppm of difethialone of the prior art is about 110 μg/gram.

Data on 1 molecule can be found in patent US20180098538A1, “CONFIGURATIONAL STEREOISOMER OF DIFETHIALONE, COMPOSITION AND RODENTICIDAL BAIT COMPRISING SAME, AND PROCESS FOR CONTROLLING TARGET RODENT PESTS” (priority 2015, published 2018).

As to `O=c1sc2ccccc2c(O)c1C1CC(c2ccc(-c3ccc(Br)cc3)cc2)Cc2ccccc21` (stereo not shown) [difethialone, 3-(4′-bromobiphenyl-4-yl)-1-(4-hydroxythiocoumarin-3-yl)-1,2,3,4-tetrahydronaphthalene], the “Difethialone content retained in the liver” value is recorded as “about 110 μg/gram”.
